According to ChEMBL document CHEMBL4800726, “Data for DCP probe MSC-4381” (2021):
One block for each compound: values may come before it.

Experiments:
[1] = target: 5-hydroxytryptamine receptor 1E (Homo sapiens, UniProt P28566); settings: Compound concentration 10.0 uM
[2] = target: Monocarboxylate transporter 1 (Homo sapiens, UniProt P53985); experiment: Lactate efflux inhibition assay (SNU-398)
[3] = target: Sigma intracellular receptor 2 (Homo sapiens) (UniProt Q5BJF2); settings: Compound concentration 10.0 uM
[4] = target: Mu-type opioid receptor (Homo sapiens) (UniProt P35372); settings: Compound concentration 10.0 uM
[5] = target: Melanocortin receptor 4 (Homo sapiens) (UniProt P32245); experiment: MC4 (h) Eurofins-Cerep binding assay; design: ligand concentration 0.05 nM; settings: filed as agonist, Compound concentration 10.0 uM
[6] = target: Neurotensin receptor type 1 (Homo sapiens) (UniProt P30989); experiment: NTS1 (NT1) (h) Eurofins-Cerep binding assay; design: ligand concentration 0.05 nM; settings: filed as agonist, Compound concentration 10.0 uM
[7] = target: Sodium-dependent serotonin transporter (Homo sapiens) (UniProt P31645); experiment: 5-HT transporter (h) Eurofins-Cerep binding assay; design: ligand concentration 2 nM; settings: filed as antagonist, Compound concentration 10.0 uM
[8] = target: Neuropeptide Y receptor type 2 (Homo sapiens) (UniProt P49146); experiment: Y2 (h) Eurofins-Cerep binding assay; design: ligand concentration 0.015 nM; settings: filed as agonist, Compound concentration 10.0 uM
[9] = target: Substance-K receptor (Homo sapiens) (UniProt P21452); experiment: NK2 (h) Eurofins-Cerep binding assay; design: ligand concentration 0.1 nM; settings: filed as agonist, Compound concentration 10.0 uM
[10] = target: Beta-1 adrenergic receptor (Homo sapiens) (UniProt P08588); experiment: Beta1 (h) Eurofins-Cerep binding assay; design: ligand concentration 0.3 nM; settings: filed as agonist, Compound concentration 10.0 uM
[11] = target: Adenosine receptor A2a (Homo sapiens) (UniProt P29274); experiment: A2A (h) Eurofins-Cerep binding assay; design: ligand concentration 6 nM; settings: filed as agonist, Compound concentration 10.0 uM
[12] = target: T1, GABA-A receptor; anion channel (Rattus norvegicus) (UniProt O09028+P15431+P18506+P18508+P19969+P20236+P23574+P23576+P28471+P28473+P30191+P62813+P63079+P63138+Q91ZM7+Q9ES14); experiment: GABA (non-selective) Eurofins-Cerep binding assay; format: protein-complex assay; design: ligand concentration 10 nM; settings: filed as agonist, Compound concentration 10.0 uM
[13] = target: Adrenergic receptor alpha-2 (Rattus norvegicus) (UniProt P22086+P19328+P22909); experiment: Alpha2 (non-selective) Eurofins-Cerep binding assay; format: protein assay; design: ligand concentration 1 nM; settings: filed as antagonist, Compound concentration 10.0 uM
[14] = target: T2, 5-hydroxytryptamine receptor 1A (Homo sapiens) (UniProt P08908); experiment: 5-HT1A (h) Eurofins-Cerep binding assay; design: ligand concentration 0.5 nM; settings: filed as agonist, Compound concentration 10.0 uM
T2 sequence (whole entry): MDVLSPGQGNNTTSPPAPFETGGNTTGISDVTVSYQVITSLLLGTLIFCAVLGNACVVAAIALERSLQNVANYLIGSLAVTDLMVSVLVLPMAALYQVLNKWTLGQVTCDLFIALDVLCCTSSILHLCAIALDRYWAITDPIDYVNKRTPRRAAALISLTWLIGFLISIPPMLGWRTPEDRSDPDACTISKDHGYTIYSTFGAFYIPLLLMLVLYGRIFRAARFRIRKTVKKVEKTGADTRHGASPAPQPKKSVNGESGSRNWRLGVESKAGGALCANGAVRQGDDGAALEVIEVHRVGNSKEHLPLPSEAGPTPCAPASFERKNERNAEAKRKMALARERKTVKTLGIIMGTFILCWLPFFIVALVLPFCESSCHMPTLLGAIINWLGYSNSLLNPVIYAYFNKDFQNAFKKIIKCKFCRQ

[15] = target: C-X-C chemokine receptor type 2 (Homo sapiens) (UniProt P25025); experiment: CXCR2 (IL-8B) (h) Eurofins-Cerep binding assay; design: ligand concentration 0.025 nM; settings: filed as agonist, Compound concentration 10.0 uM
[16] = target: Adenosine receptor A3 (Homo sapiens) (UniProt P0DMS8); experiment: A3 (h) Eurofins-Cerep binding assay; design: ligand concentration 0.15 nM; settings: filed as agonist, Compound concentration 10.0 uM
[17] = target: 5-hydroxytryptamine receptor 5A (Homo sapiens, UniProt P47898); experiment: 5-HT5a (h) Eurofins-Cerep binding assay; design: ligand concentration 1.5 nM; settings: filed as agonist, Compound concentration 10.0 uM
[18] = target: Vasopressin V1a receptor (Homo sapiens) (UniProt P37288); experiment: V1 a (h) Eurofins-Cerep binding assay; design: ligand concentration 0.3 nM; settings: filed as agonist, Compound concentration 10.0 uM
[19] = target: L-type Ca2+ channel (diltiazem site, benzothiazepines) (Rattus norvegicus, UniProt P22002+P27732+Q02485); experiment: Ca2+ channel (L, diltiazem site) (benzothiazepines) Eurofins-Cerep binding assay; format: protein assay; design: incubation time 120 min, incubation temperature RT, ligand concentration 15 nM; settings: rat cerebral cortex, probe [3H]diltiazem, compound concentration 10 uM, read-out: % Inhibition of Control Specific Binding (Mean n=2)
[20] = target: T3, Muscarinic acetylcholine receptor M5 (Homo sapiens) (UniProt P08912); experiment: M5 (h) Eurofins-Cerep binding assay; design: ligand concentration 0.3 nM; settings: filed as antagonist, Compound concentration 10.0 uM
T3 sequence (whole entry): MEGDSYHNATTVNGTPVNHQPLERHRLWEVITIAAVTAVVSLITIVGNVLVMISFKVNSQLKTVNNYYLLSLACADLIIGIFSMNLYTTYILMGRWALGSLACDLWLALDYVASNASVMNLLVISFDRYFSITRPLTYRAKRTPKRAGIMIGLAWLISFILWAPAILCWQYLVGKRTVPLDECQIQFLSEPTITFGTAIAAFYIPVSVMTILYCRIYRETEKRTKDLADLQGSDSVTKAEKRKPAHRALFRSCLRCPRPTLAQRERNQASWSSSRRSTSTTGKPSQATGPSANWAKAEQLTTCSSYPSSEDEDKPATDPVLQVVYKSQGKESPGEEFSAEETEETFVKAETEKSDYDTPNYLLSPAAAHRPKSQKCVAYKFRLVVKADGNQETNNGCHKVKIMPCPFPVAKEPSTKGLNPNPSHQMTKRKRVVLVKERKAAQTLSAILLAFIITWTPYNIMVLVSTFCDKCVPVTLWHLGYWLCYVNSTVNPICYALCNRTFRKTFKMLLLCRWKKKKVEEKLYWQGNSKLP

[21] = target: Sodium-dependent dopamine transporter (Homo sapiens, UniProt Q01959); experiment: dopamine transporter (h) Eurofins-Cerep binding assay; design: ligand concentration 4 nM; settings: filed as antagonist, Compound concentration 10.0 uM
[22] = target: Vasopressin V1a receptor (Homo sapiens) (UniProt P37288); experiment: V1a (h) Eurofins-Cerep Cellular and Nuclear Receptor Functional Assays; settings: Compound concentration 10.0 uM
Rattus norvegicus [23] = species: Rattus norvegicus; experiment: SKCa channel Eurofins-Cerep binding assay; design: ligand concentration 0.007 nM; settings: filed as antagonist, Compound concentration 10.0 uM
[24] = target: T1, GABA-A receptor; anion channel (Rattus norvegicus); experiment: Cl- channel (GABA-gated) Eurofins-Cerep binding assay; format: protein-complex assay; design: ligand concentration 3 nM; settings: filed as antagonist, Compound concentration 10.0 uM
[25] = target: Cholecystokinin receptor type A (Homo sapiens) (UniProt P32238); experiment: CCK1 (CCKA) (h) Eurofins-Cerep binding assay; design: ligand concentration 0.08 nM; settings: filed as agonist, Compound concentration 10.0 uM
[26] = target: Adenosine receptor A1 (Homo sapiens) (UniProt P30542); experiment: A1 (h) Eurofins-Cerep binding assay; design: ligand concentration 1 nM; settings: filed as antagonist, Compound concentration 10.0 uM
Rattus norvegicus [27] = species: Rattus norvegicus; experiment: KV channel Eurofins-Cerep binding assay; settings: filed as antagonist, Compound concentration 10.0 uM
[28] = target: 5-hydroxytryptamine receptor 2B (Homo sapiens) (UniProt P41595); experiment: 5-HT2B (h) Eurofins-Cerep binding assay; design: ligand concentration 0.2 nM; settings: filed as agonist, Compound concentration 10.0 uM
[29] = target: Cannabinoid receptor 1 (Homo sapiens) (UniProt P21554); experiment: CB1 (h) Eurofins-Cerep binding assay; design: ligand concentration 0.5 nM; settings: filed as agonist, Compound concentration 10.0 uM
[30] = target: Galanin receptor type 2 (Homo sapiens) (UniProt O43603); experiment: GAL2 (h) Eurofins-Cerep binding assay; design: ligand concentration 0.05 nM; settings: filed as agonist, Compound concentration 10.0 uM

Sequence of Vasopressin V1a receptor (Homo sapiens) (P37288 whole entry, looked up): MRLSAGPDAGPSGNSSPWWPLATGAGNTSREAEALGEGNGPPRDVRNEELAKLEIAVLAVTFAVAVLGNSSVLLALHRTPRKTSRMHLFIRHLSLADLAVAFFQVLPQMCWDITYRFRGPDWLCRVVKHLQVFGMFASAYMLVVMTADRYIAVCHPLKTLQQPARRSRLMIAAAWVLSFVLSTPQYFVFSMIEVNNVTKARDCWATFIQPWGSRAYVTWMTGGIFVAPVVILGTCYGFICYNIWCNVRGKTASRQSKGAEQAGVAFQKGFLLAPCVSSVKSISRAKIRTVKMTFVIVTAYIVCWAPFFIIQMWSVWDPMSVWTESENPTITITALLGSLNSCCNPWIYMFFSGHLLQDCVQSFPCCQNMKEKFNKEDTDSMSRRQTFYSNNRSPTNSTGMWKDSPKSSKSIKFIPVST
Sequence of Adenosine receptor A1 (Homo sapiens) (P30542 whole entry): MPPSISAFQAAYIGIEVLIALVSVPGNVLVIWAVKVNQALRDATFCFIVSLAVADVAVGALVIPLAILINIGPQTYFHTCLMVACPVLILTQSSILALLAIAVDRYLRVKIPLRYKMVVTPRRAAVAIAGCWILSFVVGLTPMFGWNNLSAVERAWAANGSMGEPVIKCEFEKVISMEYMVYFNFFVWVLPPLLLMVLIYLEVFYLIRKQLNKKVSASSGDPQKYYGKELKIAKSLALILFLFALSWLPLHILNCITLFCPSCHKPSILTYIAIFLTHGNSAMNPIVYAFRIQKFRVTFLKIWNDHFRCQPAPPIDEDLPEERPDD
Sequence of Neurotensin receptor type 1 (Homo sapiens) (P30989 whole entry): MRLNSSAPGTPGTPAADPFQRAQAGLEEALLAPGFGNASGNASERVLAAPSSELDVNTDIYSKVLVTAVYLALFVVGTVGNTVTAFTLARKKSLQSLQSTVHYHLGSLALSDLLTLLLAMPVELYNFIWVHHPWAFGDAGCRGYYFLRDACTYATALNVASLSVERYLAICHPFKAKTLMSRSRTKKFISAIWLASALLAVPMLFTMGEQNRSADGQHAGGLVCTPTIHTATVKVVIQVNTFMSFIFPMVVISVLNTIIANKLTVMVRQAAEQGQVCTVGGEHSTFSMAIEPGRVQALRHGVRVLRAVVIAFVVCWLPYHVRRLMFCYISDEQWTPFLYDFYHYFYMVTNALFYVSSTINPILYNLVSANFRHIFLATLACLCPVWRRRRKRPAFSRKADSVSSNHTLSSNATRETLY
Sequence of Cholecystokinin receptor type A (Homo sapiens) (P32238 whole entry): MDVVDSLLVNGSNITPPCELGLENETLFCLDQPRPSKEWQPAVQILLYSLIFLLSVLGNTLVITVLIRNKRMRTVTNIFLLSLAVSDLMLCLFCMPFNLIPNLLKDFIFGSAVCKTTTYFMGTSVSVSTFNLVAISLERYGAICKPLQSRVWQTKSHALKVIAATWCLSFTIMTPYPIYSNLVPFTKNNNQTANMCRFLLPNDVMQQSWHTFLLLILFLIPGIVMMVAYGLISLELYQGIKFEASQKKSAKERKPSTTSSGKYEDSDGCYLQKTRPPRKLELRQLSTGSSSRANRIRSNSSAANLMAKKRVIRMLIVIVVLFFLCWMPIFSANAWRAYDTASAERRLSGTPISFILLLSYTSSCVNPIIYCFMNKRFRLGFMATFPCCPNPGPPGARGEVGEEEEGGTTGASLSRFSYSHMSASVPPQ
Sequence of Beta-1 adrenergic receptor (Homo sapiens) (P08588 whole entry, looked up): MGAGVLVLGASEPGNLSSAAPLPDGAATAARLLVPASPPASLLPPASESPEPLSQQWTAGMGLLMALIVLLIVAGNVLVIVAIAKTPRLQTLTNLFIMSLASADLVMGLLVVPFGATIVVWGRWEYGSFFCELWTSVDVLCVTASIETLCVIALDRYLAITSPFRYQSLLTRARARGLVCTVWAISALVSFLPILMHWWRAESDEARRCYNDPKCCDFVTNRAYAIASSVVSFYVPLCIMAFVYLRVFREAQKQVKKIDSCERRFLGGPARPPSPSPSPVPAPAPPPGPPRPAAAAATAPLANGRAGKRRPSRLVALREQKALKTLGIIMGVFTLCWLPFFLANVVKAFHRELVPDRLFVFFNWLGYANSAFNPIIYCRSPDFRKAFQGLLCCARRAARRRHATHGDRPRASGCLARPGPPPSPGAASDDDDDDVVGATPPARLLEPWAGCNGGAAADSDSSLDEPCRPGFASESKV
Sequence of 5-hydroxytryptamine receptor 1E (P28566 whole entry): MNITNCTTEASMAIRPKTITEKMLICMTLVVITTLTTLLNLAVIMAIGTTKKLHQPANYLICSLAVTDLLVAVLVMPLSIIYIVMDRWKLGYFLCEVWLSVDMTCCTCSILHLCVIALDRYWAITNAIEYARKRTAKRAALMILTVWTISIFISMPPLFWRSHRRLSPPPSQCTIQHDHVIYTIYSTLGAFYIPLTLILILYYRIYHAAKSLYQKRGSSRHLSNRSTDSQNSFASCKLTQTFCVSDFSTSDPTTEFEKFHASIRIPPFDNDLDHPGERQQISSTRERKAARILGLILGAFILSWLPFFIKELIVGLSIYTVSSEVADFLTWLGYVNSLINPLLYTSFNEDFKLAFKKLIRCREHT
Sequence of Neuropeptide Y receptor type 2 (Homo sapiens) (P49146 whole entry): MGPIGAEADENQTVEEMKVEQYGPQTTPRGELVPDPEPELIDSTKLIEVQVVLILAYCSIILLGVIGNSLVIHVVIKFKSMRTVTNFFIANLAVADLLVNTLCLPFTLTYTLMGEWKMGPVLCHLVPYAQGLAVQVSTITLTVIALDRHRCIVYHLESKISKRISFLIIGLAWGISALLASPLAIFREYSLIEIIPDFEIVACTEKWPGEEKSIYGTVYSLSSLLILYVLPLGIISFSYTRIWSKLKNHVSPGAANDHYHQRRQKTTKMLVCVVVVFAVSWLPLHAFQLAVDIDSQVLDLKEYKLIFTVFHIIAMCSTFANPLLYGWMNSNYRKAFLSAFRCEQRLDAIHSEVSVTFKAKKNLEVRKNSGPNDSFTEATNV
Sequence of Sodium-dependent serotonin transporter (Homo sapiens) (P31645 whole entry, looked up): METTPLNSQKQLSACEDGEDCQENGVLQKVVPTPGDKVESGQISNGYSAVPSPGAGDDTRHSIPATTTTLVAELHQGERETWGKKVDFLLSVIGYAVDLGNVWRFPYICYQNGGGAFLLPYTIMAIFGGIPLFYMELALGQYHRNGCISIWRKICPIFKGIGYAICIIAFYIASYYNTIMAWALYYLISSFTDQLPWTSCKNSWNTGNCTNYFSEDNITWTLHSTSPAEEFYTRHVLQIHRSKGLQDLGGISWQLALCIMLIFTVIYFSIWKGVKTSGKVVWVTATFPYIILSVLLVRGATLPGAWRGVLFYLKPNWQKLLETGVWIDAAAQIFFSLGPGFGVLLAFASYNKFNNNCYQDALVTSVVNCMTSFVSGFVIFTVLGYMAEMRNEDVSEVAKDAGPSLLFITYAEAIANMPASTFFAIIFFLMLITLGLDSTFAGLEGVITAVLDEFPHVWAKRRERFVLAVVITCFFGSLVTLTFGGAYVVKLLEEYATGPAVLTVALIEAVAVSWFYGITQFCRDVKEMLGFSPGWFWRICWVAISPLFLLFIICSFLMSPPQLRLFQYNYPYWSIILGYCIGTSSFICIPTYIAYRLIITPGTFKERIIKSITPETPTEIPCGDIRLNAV
Sequence of Adenosine receptor A3 (Homo sapiens) (P0DMS8 whole entry): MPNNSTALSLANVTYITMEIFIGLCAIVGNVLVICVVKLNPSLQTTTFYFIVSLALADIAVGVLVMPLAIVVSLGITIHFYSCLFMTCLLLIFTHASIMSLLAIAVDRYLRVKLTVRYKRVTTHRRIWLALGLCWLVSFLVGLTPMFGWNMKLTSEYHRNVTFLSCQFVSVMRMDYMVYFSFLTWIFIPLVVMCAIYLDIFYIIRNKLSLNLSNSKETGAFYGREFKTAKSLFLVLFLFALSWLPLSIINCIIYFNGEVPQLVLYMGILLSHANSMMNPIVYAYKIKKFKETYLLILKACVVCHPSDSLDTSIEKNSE
Sequence of Sodium-dependent dopamine transporter (Q01959 whole entry): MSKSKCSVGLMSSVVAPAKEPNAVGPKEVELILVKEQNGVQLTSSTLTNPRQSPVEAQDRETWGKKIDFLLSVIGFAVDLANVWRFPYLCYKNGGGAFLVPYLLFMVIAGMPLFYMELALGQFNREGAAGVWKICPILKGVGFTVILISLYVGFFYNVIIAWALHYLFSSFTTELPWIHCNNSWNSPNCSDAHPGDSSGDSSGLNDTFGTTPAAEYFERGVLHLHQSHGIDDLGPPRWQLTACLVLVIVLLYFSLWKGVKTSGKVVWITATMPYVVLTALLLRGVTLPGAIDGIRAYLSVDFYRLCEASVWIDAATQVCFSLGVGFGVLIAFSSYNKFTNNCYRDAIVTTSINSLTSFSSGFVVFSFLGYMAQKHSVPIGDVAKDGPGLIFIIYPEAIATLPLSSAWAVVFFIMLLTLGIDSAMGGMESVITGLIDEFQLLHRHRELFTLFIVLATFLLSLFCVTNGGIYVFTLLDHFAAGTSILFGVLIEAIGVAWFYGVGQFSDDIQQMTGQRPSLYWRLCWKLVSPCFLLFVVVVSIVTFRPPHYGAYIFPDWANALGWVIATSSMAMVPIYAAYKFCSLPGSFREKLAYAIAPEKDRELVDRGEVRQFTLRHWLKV
Sequence of 5-hydroxytryptamine receptor 5A (P47898 whole entry): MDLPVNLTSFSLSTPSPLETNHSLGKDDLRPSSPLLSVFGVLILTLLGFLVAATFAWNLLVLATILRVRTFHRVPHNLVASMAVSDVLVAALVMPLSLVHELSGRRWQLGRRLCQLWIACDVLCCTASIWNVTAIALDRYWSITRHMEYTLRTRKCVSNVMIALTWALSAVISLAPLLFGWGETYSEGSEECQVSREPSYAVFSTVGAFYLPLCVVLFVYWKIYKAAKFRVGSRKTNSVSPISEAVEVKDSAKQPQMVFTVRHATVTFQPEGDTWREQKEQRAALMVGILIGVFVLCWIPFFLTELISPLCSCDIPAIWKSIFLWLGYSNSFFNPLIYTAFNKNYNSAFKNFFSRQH
Sequence of Sigma intracellular receptor 2 (Homo sapiens) (Q5BJF2 whole entry): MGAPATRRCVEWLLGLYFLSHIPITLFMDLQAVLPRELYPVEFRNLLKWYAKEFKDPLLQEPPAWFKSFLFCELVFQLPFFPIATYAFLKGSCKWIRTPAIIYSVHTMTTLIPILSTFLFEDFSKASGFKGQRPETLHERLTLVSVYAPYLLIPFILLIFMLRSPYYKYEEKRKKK

inhibition [1]: 20.6%
IC50 [2]: > 4 µM (not active)
inhibition [3]: 25%
inhibition [4]: 35.4%
SMILES: COc1cc(C(=O)O)ncc1C#Cc1ccccc1NS(=O)(=O)c1cccc2c(N(C)C)ccnc12 [MSC-0516]

% Inhibition of Control Specific Binding (Mean n=2) [5]: -8%
% Inhibition of Control Specific Binding (Mean n=2) [6]: -10.4%
% Inhibition of Control Specific Binding (Mean n=2) [7]: 2.4%
% Inhibition of Control Specific Binding (Mean n=2) [8]: 8%
% Inhibition of Control Specific Binding (Mean n=2) [9]: 46%
% Inhibition of Control Specific Binding (Mean n=2) [10]: 17.4%
% Inhibition of Control Specific Binding (Mean n=2) [11]: -5.5%
% Inhibition of Control Specific Binding (Mean n=2) [12]: 1.2%
% Inhibition of Control Specific Binding (Mean n=2) [13]: -8.2%
% Inhibition of Control Specific Binding (Mean n=2) [14]: -58.9%
% Inhibition of Control Specific Binding (Mean n=2) [15]: 7.3%
% Inhibition of Control Specific Binding (Mean n=2) [16]: 28.1%
% Inhibition of Control Specific Binding (Mean n=2) [17]: -20.7%
% Inhibition of Control Specific Binding (Mean n=2) [18]: 92.3%
inhibition at 120 min, 10 µM [19]: -8.8%
% Inhibition of Control Specific Binding (Mean n=2) [20]: -3.3%
% Inhibition of Control Specific Binding (Mean n=2) [21]: 7.8%
% Inhibition of Control Agonist Response (Mean n=2) [22]: 34.9%
% of Control Agonist Response (Mean n=2) [22]: -3.1%
% Inhibition of Control Specific Binding (Mean n=2) (Rattus norvegicus [23]): -6.7%
% Inhibition of Control Specific Binding (Mean n=2) [24]: 59.9%
% Inhibition of Control Specific Binding (Mean n=2) [25]: -18.1%
% Inhibition of Control Specific Binding (Mean n=2) [26]: 56.2%
% Inhibition of Control Specific Binding (Mean n=2) (Rattus norvegicus [27]): -5.9%
% Inhibition of Control Specific Binding (Mean n=2) [28]: -47.1%
% Inhibition of Control Specific Binding (Mean n=2) [29]: -11.3%
% Inhibition of Control Specific Binding (Mean n=2) [30]: 11.1%
SMILES: CCOc1ccc(S(=O)(=O)Nc2ccc(Cl)cc2C#Cc2cnc(C(=O)O)cc2OC)c2ncccc12 [MSC-4381]
